Reference: publication PMC7041944 (eLife, 2020)
Read-outs that look alike come from different tables or passages of the source.

Key:
MOR [1] = type: cell-based, murine
MOR [2] = type: cell-based, murine; remark: listed apart in the source
KOR [3] = type: cell-based, murine
[4] = molecular target: signal sequence FLAG (ssf)-KOR, murine (kappa opioid receptor) (murine) (UniProt P33534); experiment: TIR-FM recruitment of a fluorescent cytosolic protein to the plasma membrane of living cells; HEK293 cells co-expressing the fluorescent cytosolic protein and the receptor; 37 C, HBS imaging solution pH 7.4; agonists added in rising concentrations (1 nM - 10 uM) by bath application or perfusion: DynA, U69, U50, etorphine for KOR; DAMGO, etorphine, morphine, PZM21, MP for MOR; reversed by the antagonists 5'GNTI or naloxone; also with Cmpd101 (30 uM)
KOR [5] = type: cell-based, murine; remark: listed apart in the source
KOR [6] = type: cell-based, murine; remark: listed apart in the source
KOR [7] = experiment: mGs probe recruitment to KOR (TIR-FM); type: cell-based, murine; conditions: DynA 1 nM - 10 μM; Venus-mGs, HEK293, TIR-FM
Description: Live cell image series measuring protein recruitment to the plasma membrane were performed at 37°C using a Nikon Ti-E microscope equipped for through-the-objective TIR-FM with a temperature-, humidity- and CO2-controlled chamber (Okolab), objective heater, perfect focus system, and an Andor DU897 EMCCD camera. Images were obtained with a 100 × 1.49 NA Apo TIRF objective (Nikon) with solid-state lasers of 488, 561 and 647 nm (Keysight Technologies). Before imaging, receptors at the cell surface were labelled with M1 monoclonal FLAG antibody (1:1,000) conjugated to Alexa647 dye for 10 min at 37°C. Cells were then washed and live imaged in HBS imaging solution (Hepes buffered saline (HBS) with 135 mM NaCl, 5 mM KCl, 0.4 mM MgCl2,1.8 mM CaCl2, 20 mM Hepes, 5 mM d-glucose adjusted to pH 7.4 and 300–315 mOsmol/l). Agonists or antagonists were either added by bath application at concentrations indicated in the figure legends or by media perfusion. For the latter, an insert was 3D-printed and placed inside the imaging dish where it left a dead volume of about 300 μL. […]
For probing protein recruitment to the plasma membrane, HEK293 cells co-expressing the cytosolic protein of interest (mGsi, Nb33, or GRK2) and MOR or KOR were imaged using TIR-FM. […] Protein intensity during time lapse series was measured using ImageJ. […]

KOR [8] = type: cell-based, murine; remark: listed apart in the source
KOR [9] = type: cell-based, murine; remark: listed apart in the source

UniProt P33534, sequence (P33534 whole entry, the tested form may be a part): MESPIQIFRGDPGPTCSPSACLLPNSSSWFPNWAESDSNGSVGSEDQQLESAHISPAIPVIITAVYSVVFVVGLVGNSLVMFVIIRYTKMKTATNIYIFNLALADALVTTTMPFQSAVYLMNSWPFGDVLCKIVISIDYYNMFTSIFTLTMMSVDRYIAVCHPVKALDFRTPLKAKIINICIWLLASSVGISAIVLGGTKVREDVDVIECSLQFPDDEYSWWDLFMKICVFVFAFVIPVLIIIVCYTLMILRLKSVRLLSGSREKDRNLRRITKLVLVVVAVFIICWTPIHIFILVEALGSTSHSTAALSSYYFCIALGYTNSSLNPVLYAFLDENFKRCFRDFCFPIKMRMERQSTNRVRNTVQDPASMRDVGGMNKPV

C[C@@H](Cc1ccsc1)NC(=O)NC[C@H](Cc1ccc(O)cc1)N(C)C [PZM21]
mGsi/Nb33, ratio of intrinsic activities (MOR [1]): 2.60 | I.A.(mGsi), intrinsic activity (maximal response) (MOR [1]; SEM): 0.70±0.02 | I.A.(Nb33), intrinsic activity (maximal response) (MOR [2]; SEM): 0.27±0.05

Cl.Cl.NC(N)=Nc1ccc2[nH]c3c(c2c1)C[C@@]1(O)[C@H]2Cc4ccc(O)c5c4[C@@]1(CCN2CC1CC1)[C@H]3O5 [5’GNTI, GNTI dihydrochloride]
reversal of DynA-induced mGsi recruitment by KOR antagonist (KOR [3]): rapid redistribution of the biosensor back to the cytoplasm

CC[C@@H]1CN2CC[C@]3(Nc4cccc(OC)c4C3=O)[C@@H]2C[C@@H]1/C(=C\OC)C(=O)OC [MP, mitragynine pseudoindoxyl]
mGsi/Nb33, ratio of intrinsic activities (MOR [1]): 7.47 | I.A.(mGsi), intrinsic activity (maximal response) (MOR [1]; SEM): 0.31±0.02 | Nb33 recruitment by MOR (in words) (MOR [2]): without promoting detectable recruitment | I.A.(Nb33), intrinsic activity (maximal response) (MOR [2]; SEM): 0.04±0.05

DAMGO, [D-Ala2, N-Me-Phe4, Gly5-ol]-Enkephalin acetate salt
I.A.(mGsi), intrinsic activity (maximal response) (MOR [1]): 1.00 | mGsi/Nb33, ratio of intrinsic activities (MOR [1]): 1 | I.A.(Nb33), intrinsic activity (maximal response) (MOR [2]): 1.00

NES-Venus-mGsi (mini-G protein: Ras-like domain of Gs alpha with nine distal C-terminal residues from Gi alpha1) (designed binder)
maximum recruitment with etorphine, percent of that with DynA [4]: 67%

Dynorphin A (1–17, DynA)
GRK2 accumulation at KOR-containing clusters (in words) (KOR [5]): specifically accumulated at the KOR-containing clusters | I.A.(mGsi), intrinsic activity (maximal response) (KOR [3]): 1.00 | mGsi/Nb33, ratio of intrinsic activities (KOR [3]): 1 | recruitment of isolated C-terminal PH domain from GRK2 (GRK2-C-tail) (KOR [6]): similarly strong recruitment | mGs recruitment in response to KOR activation (KOR [7]): not detectably recruited | GRK2 recruitment in cells pre-exposed to pertussis toxin (KOR [8]): significant recruitment response | I.A.(Nb33), intrinsic activity (maximal response) (KOR [9]): 1.00
